melting point [°C] | Structure (SMILES)
157 to 159 | CCc1nc2c(N)nc(C)c(C)c2n1CCOCCN1CCCS1(=O)=O [Example 106, 1-{2-[2-(1,1-Dioxidoisothiazolidin-2-yl)ethoxy]ethyl}-2-ethyl-6,7-dimethyl-1H-imidazo[4,5-c]pyridin-4-amine]
185 to 187 | CCc1nc2c(N)nc(C)c(C)c2n1CCOCCNC(=O)NC(=O)c1ccccc1 [Example 107, N-{2-[2-(4-Amino-2-ethyl-6,7-dimethyl-1H-imidazo[4,5-c]pyridin-1-yl)ethoxy]ethyl}-N′-benzoylurea]
201 to 203 | CCc1nc2c(N)nc(C)c(C)c2n1CCOCCNC(=O)NS(=O)(=O)c1ccccc1 [Example 108, N-[({2-[2-(4-Amino-2-ethyl-6,7-dimethyl-1H-imidazo[4,5-c]pyridin-1-yl)ethoxy]ethyl}amino)carbonyl]benzenesulfonamide]
143 to 145 | CCOCc1nc2c(N)nc(C)c(C)c2n1CCOCc1ccncc1 [Example 109, 2-(Ethoxymethyl)-6,7-dimethyl-1-[2-(pyridin-4-ylmethoxy)ethyl]-1II-imidazo[4,5-c]pyridin-4-amine]
208 to 210 | Cc1nc(N)c2nc(C)n(CCOCc3ccncc3)c2c1C [Example 110, 2,6,7-Trimethyl-1-[2-(pyridin-4-ylmethoxy)ethyl]-1H-imidazo[4,5-c]pyridin-4-amine]
122 to 124 | CCOCc1nc2c(N)nc(C)c(C)c2n1CCOCC#Cc1cncnc1 [Example 111, 2-(Ethoxymethyl)-6,7-dimethyl-1-{2-[(3-pyrimidin-5-ylprop-2-ynyl)oxy]ethyl}-1H-imidazo[4,5-c]pyridin-4-amine]
127 to 129 | CCOCc1nc2c(N)nc(C)c(C)c2n1CCOCCCc1cncnc1 [Example 112, 2-(Ethoxymethyl)-6,7-dimethyl-1-[2-(3-pyrimidin-5-ylpropoxy)ethyl]-1H-imidazo[4,5-c]pyridin-4-amine]
129 to 131 | CCCc1nc2c(N)ncc(Br)c2n1CCOCCNS(C)(=O)=O [Example 113, N-{2-[2-(4-Amino-7-bromo-2-propyl-1H-imidazo[4,5-c]pyridin-1-yl)ethoxy]ethyl}methanesulfonamide]
114 to 117 | CCCc1nc2c(N)ncc(Br)c2n1CCOCCN [Example 114, 1-[2-(2-Aminoethoxy)ethyl]-7-bromo-2-propyl-1H-imidazo[4,5-c]pyridin-4-amine]
147 to 149 | CCCCNC(=O)c1ccc(S(=O)(=O)CCCn2c(CCC)nc3c(N)nc(C)c(C)c32)cc1 [Example 119, 4-[3-(4-Amino-6,7-dimethyl-2-propyl-1H-imidazo[4,5-c]pyridin-1-yl)propane-1-sulfonyl]-N-butylbenzamide]
127 to 129 | CCCCN(C)C(=O)c1ccc(S(=O)(=O)CCCn2c(CCC)nc3c(N)nc(C)c(C)c32)cc1 [Example 120, 4-[3-(4-Amino-6,7-dimethyl-2-propyl-1H-imidazo[4,5-c]pyridin-1-yl)propane-1-sulfonyl]-N-butyl-N-methylbenzamide]
158 to 161 | CCCc1nc2c(N)nc(Cl)c(C)c2n1CCOCCN [Example 121, 1-[2-(2-Aminoethoxy)ethyl]-6-chloro-7-methyl-2-propyl-1H-imidazo[4,5-c]pyridin-4-amine]
129 to 130 | CCOCc1nc2c(N)nc(C)c(C)c2n1CCOCC#Cc1ccccc1 [Example 122, 2-Ethoxymethyl-6,7-dimethyl-1-{2-[(3-phenylprop-2-ynyl)oxy]ethyl}-1H-imidazo[4,5-c]pyridin-4-amine]
128 to 130 | CCc1nc2c(N)nc(C)c(C)c2n1CCOCCN1CCCC1=O [Example 124, 1-{2-[2-(4-Amino-2-ethyl-6,7-dimethyl-1H-imidazo[4,5-c]pyridin-1-yl)ethoxy]ethyl}pyrrolindin-2-one]
188 to 189 | CCCc1nc2c(N)nc(Cl)c(C)c2n1CCOCCNC(=O)c1ccccc1 [Example 125, N-{2-[2-(4-Amino-6-chloro-7-methyl-2-propyl-1H-imidazo[4,5-c]pyridin-4-yl)ethoxy]ethyl}benzamide]

Reference: patent US7220758B2, “Ether substituted imidazopyridines” (3M Innovative Properties Company, priority 2002, dated 2007)
